# From patent US20260199485A1, “RNA DEGRADERS AND USES THEREOF” (Arrakis Therapeutics, Inc., priority 2022, published 2026)
# Target: T1, CNOT7 (Homo sapiens, UniProt Q9UIV1)
# T1 construct: biotin (biotinylated); purchased Ichor Life Sciences
# Test: Binding of compounds to CNOT7 by surface plasmon resonance (SPR)
# Details: Table 6; dissociation constant for CNOT7 by SPR
# Procedure: Surface plasmon resonance (SPR) was used to evaluate the binding of compounds to CNOT7. Experiments were performed on a Biacore 8K (Cytiva) with a running buffer consisting of 20 mM HEPES pH7.5, 100 mM KCl, 3 mM MgCl2, 1 mM TCEP, 0.05% tween-20, 2% DMSO. Briefly, biotinylated CNOT7 (Ichor Life Sciences) at a concentration of 70 μg/ml was immobilized to a streptavidin coated chip (Cytiva sensor chip SA) for 1200 sec at a flow rate of 5 μl/min (typical immobilization level 7,500 RU). For compound binding experiments, various concentrations of analyte were flowed over the chip with 120 sec association phase, 120 sec dissociation phase, at a flow rate of 30 ul/min and collection rate of 10 Hz. Reference channel subtraction and solvent correction were applied to all sensograms prior to data analysis. Sensograms were fit to 1:1 steady state affinity model. FIGS. 3 and 4 show the binding of exemplary compounds and the AMP control (a known CNOT7 active site binder) at various concentrations to CNOT7.
# T1 sequence (Q9UIV1 whole entry): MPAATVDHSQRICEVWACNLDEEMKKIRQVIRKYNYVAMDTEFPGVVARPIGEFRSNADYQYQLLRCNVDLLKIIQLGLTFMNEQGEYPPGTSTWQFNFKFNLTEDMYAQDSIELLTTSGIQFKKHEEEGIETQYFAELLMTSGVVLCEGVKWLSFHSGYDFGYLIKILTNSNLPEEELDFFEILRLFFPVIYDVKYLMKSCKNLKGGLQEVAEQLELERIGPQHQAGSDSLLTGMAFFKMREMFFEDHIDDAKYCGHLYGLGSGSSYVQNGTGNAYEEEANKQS
row,Kd [µM],SMILES
1,1 to 25,COC[C@H](Sc1nc(=O)[nH]cc1C)C(=O)N[C@@H](C)c1ccc2c(c1)CC(=O)N2 [Compound I-325]
2,1 to 25,C#CCOCCOCCOCC(Sc1nc(=O)[nH]cc1C)C(=O)NC(C)c1ccc(OC)cc1F (stereo not drawn) [Compound I-326]
3,1 to 25,COc1ccc([C@@H](NC(=O)CSc2nc(=O)[nH]cc2C)C(C)C)cc1 [Compound I-327]
4,1 to 25,Cc1c[nH]c(=O)nc1SCC(=O)N[C@@H](C)c1ccc2c(c1)CC(=O)N2 [Compound I-328]

# Same assay, conditions: dissociation constant by SPR, Table 7
row,Kd [µM],SMILES
1,1 to 25,COC[C@H](Sc1nc(=O)[nH]cc1C)C(=O)N[C@@H](C)c1ccc2c(c1)CC(=O)N2 [Compound I-325]
2,1 to 25,C#CCOCCOCCOCC(Sc1nc(=O)[nH]cc1C)C(=O)NC(C)c1ccc(OC)cc1F (stereo not drawn) [Compound I-326]
3,1 to 25,COc1ccc([C@@H](NC(=O)CSc2nc(=O)[nH]cc2C)C(C)C)cc1 [Compound I-327]
4,1 to 25,Cc1c[nH]c(=O)nc1SCC(=O)N[C@@H](C)c1ccc2c(c1)CC(=O)N2 [Compound I-328]
5,1 to 25,COCC(Sc1nc(=O)[nH]cc1C)C(=O)NC(C)c1ccc2c(c1)CC(=O)N2 (stereo not drawn) [Compound I-331]
6,1 to 25,COC[C@@H](Sc1nc(=O)[nH]cc1C)C(=O)N[C@@H](C)c1ccc2c(c1)CC(=O)N2 [Compound I-332]
7,1 to 25,COC[C@@H](Sc1nc(=O)[nH]cc1Cl)C(=O)N[C@H](C)c1ccc2c(c1)CC(=O)N2 [Compound I-333]
8,1 to 25,COC[C@H](Sc1nc(=O)[nH]cc1Cl)C(=O)N[C@H](C)c1ccc2c(c1)CC(=O)N2 [Compound I-334]
9,> 25,COc1ccc(C(CN(C)C)NC(=O)CSc2nc(=O)[nH]cc2C)cc1 (stereo not drawn) [Compound I-340]
10,1 to 25,C#CCOCCOCCOCC(Sc1nc(=O)[nH]cc1Cl)C(=O)NC(C)c1ccc(OC)cc1F (stereo not drawn) [Compound I-342]
11,1 to 25,COc1ccc([C@@H](C)NC(=O)[C@@H](CCOCCOCCOCCN=[N+]=[N-])Sc2nc(=O)[nH]cc2Cl)c(F)c1 [Compound I-349]
12,1 to 25,COc1ccc([C@@H](C)NC(=O)[C@@H](COCCOCCOCCN=[N+]=[N-])Sc2nc(=O)[nH]cc2C)c(F)c1 [Compound I-367]
13,1 to 25,COc1ccc([C@@H](C)NC(=O)[C@H](COCCOCCOCCN=[N+]=[N-])Sc2nc(=O)[nH]cc2C)c(F)c1 [Compound I-368]
14,1 to 25,COc1ccc([C@@H](C)NC(=O)[C@@H](CCOCCOCCOCCN=[N+]=[N-])Sc2nc(=O)[nH]cc2C)c(F)c1 [Compound I-378]
15,> 25,COc1ccc(C(C)NC(=O)C(CCOCCOCCOCCn2cc(CCc3ccc(NC(=O)Nc4nc(CC(=O)N5CCN(C)CC5)cs4)cc3)nn2)Sc2nc(=O)[nH]cc2Cl)c(F)c1 (stereo not drawn) [Compound I-384]
16,1 to 25,COc1ccc([C@@H](C)NC(=O)[C@@H](COCCOCCOCCN=[N+]=[N-])Sc2nc(=O)[nH]cc2Cl)c(F)c1 [Compound I-392]
17,> 25,COc1ccc(CNC(=O)[C@H](CCOCCOCCOCCN=[N+]=[N-])Sc2nc(=O)[nH]cc2Cl)cc1 [Compound I-400]
18,> 25,COc1ccc(CNC(=O)[C@@H](CCOCCOCCOCCN=[N+]=[N-])Sc2nc(=O)[nH]cc2Cl)c(F)c1 [Compound I-401]
19,1 to 25,COc1ccc(CNC(=O)[C@H](CCOCCOCCOCCN=[N+]=[N-])Sc2nc(=O)[nH]cc2Cl)c(F)c1 [Compound I-402]
20,1 to 25,COc1ccc(CNC(=O)[C@H](COCCOCCOCCN=[N+]=[N-])Sc2nc(=O)[nH]cc2C)cc1 [Compound I-404]
21,1 to 25,COc1ccc(CNC(=O)[C@@H](COCCOCCOCCN=[N+]=[N-])Sc2nc(=O)[nH]cc2C)c(F)c1 [Compound I-405]
22,1 to 25,Cc1c[nH]c(=O)nc1S[C@H](COCCOCCOCCN=[N+]=[N-])C(=O)NCc1ccc2c(c1)CC(=O)N2 [Compound I-407]
23,1 to 25,Cc1c[nH]c(=O)nc1S[C@@H](COCCOCCOCCN=[N+]=[N-])C(=O)NCc1ccc2c(c1)CC(=O)N2 [Compound I-408]
24,> 25,[N-]=[N+]=NCCOCCOCCOCC[C@@H](Sc1nc(=O)[nH]cc1Cl)C(=O)NCc1ccc2c(c1)CC(=O)N2 [Compound I-409]

row,Kd [µM],SMILES
1,> 25,[N-]=[N+]=NCCOCCOCCOCC[C@H](Sc1nc(=O)[nH]cc1Cl)C(=O)NCc1ccc2c(c1)CC(=O)N2 [Compound I-410]
2,1 to 25,COC[C@H](Sc1nc(=O)[nH]cc1C)C(=O)NCc1ccc2c(c1)CC(=O)N2C [Compound I-412]
3,> 25,COc1ccc2c(c1)C[C@@H](COCCOCCOCCOCCN=[N+]=[N-])N(C(=O)CSc1nc(=O)[nH]cc1Cl)C2 [Compound I-415]
4,1 to 25,COc1ccc2c(c1)C[C@H](COCCOCCOCCOCCN=[N+]=[N-])N(C(=O)CSc1nc(=O)[nH]cc1Cl)C2 [Compound I-416]
5,> 25,"COc1ccc2c(c1)CCN(C(=O)[C@@H](COCCOCCOCCN=[N+]=[N-])Sc1nc(=O)[nH]cc1C)[C@@H]2C [Compound I-421, 4-[(1R)-1-[2-[2-(2-azidoethoxy)ethoxy]ethoxymethyl]-2-[(1R)-6-methoxy-1-methyl-3,4-dihydro-1H-isoquinolin-2-yl]-2-oxo-ethyl]sulfanyl-5-methyl-1H-pyrimidin-2-one]"
6,1 to 25,COc1ccc2c(c1)[C@H](COCCOCCOCCOCCN=[N+]=[N-])CN(C(=O)CSc1nc(=O)[nH]cc1Cl)[C@@H]2C [Compound I-426]
7,1 to 25,COc1ccc2c(c1)C[C@H](COCCOCCOCCOCCN=[N+]=[N-])N(C(=O)CSc1nc(=O)[nH]cc1Cl)[C@@H]2C [Compound I-428]
8,1 to 25,COc1ccc2c(c1)CCN(C(=O)CSc1nc(=O)[nH]cc1Cl)C2 [Compound I-431]
9,1 to 25,C#CCOCCOCCOCCOC[C@@H]1Cc2cc(OC)ccc2[C@@H](C)N1C(=O)CSc1nc(=O)[nH]cc1Cl [Compound I-432]
10,> 25,C#CCOCCOCCOCCOC[C@H]1Cc2cc(OC)ccc2[C@@H](C)N1C(=O)CSc1nc(=O)[nH]cc1Cl [Compound I-433]
11,> 25,COc1cc(F)c2c(c1)CCN(C(=O)CSc1nc(=O)[nH]cc1Cl)C2 [Compound I-440]
12,1 to 25,COCCOCCC(Sc1nc(=O)[nH]cc1C)C(=O)NCc1ccc(OC)cc1 (stereo not drawn) [Compound I-443]
13,1 to 25,COCCOCC[C@@H](Sc1nc(=O)[nH]cc1C)C(=O)NCc1ccc(OC)cc1 [Compound I-444]
14,1 to 25,C#CCOCCOCCOCCOC[C@@H]1Cc2cc(OC)ccc2[C@H](C)N1C(=O)CSc1nc(=O)[nH]cc1Cl [Compound I-482]
15,> 25,COc1ccc2c(c1)C[C@H](COCCOCCOCCOCCN=[N+]=[N-])N(C(=O)CSc1nc(=O)[nH]cc1C)C2 [Compound I-487]
16,1 to 25,COc1ccc(CNC(=O)[C@H](CCc2ccc(O)cc2)Sc2nc(=O)[nH]cc2C)cc1 [Compound I-489]
17,1 to 25,COCCNC(=O)CCC(Sc1nc(=O)[nH]cc1C)C(=O)NCc1ccc(OC)cc1 (stereo not drawn) [Compound I-490]
18,> 25,COc1ccc(CNC(=O)C(CCC(=O)N2CCN(C)CC2)Sc2nc(=O)[nH]cc2C)cc1 (stereo not drawn) [Compound I-491]
19,> 25,CC#CCNC(=O)CCC(Sc1nc(=O)[nH]cc1C)C(=O)NCc1ccc(OC)cc1 (stereo not drawn) [Compound I-492]
20,1 to 25,C#CCOCCOCCOCCOC[C@H]1CN(C(=O)CSc2nc(=O)[nH]cc2Cl)[C@@H](C)c2ccc(OC)cc21 [Compound I-493]
21,1 to 25,COCCN1CCN(CCC(Sc2nc(=O)[nH]cc2C)C(=O)NCc2ccc(OC)cc2)CC1 (stereo not drawn) [Compound I-499]
22,1 to 25,COCCOCC#CCC(Sc1nc(=O)[nH]cc1C)C(=O)NCc1ccc(OC)cc1 (stereo not drawn) [Compound I-500]
23,1 to 25,COCCOCC#CC[C@H](Sc1nc(=O)[nH]cc1C)C(=O)NCc1ccc(OC)cc1 [Compound I-502]
